Assays:
[1] = ob/ob and db/db mice, 8 day AICAR administration; cited from earlier work
[2] = target: T1, AMPK protein (recombinant α1β1γ2) (Homo sapiens, UniProt Q13131+Q9Y478); assay: AMPK enzymatic activity (Delfia, AMARA peptide substrate); assay type: biochemical; settings: compound 30 μM vs AMP 30 μM; 125 μM ATP; ratio 90% or higher = direct activator
T1 construct: made in house; host or cells: E. coli
How it was run: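 Human α1β1γ2 AMPK expressed in E. coli, reactivated in vitro by LKB1, assayed in 50 mM Hepes pH 7.4 with 125 μM ATP and AMARA peptide for 30 min at room temperature; phosphorylation detected by Delfia anti-phosphoserine antibody. Activity = % of basal control at 30 μM compound relative to that of 30 μM AMP.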

H-2 Kb cells = assay: Glucose uptake in H-2 Kb cells (in vitro cellular test); assay type: cell-based, mouse; settings: H-2 Kb cells differentiated in muscle, 4 hours incubation, 2-deoxy-D-[1,2 3H] glucose uptake 10 min
How it was run: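 H-2 Kb tsA58 mouse cells were differentiated to muscle at 37° C without interferon-γ for 3 days, then exposed to compound for 4 h in 1 g/l glucose DMEM. Uptake of 3H-2-deoxyglucose over 10 min was measured by scintillation. Activity was taken as the compound concentration matching or exceeding uptake with insulin (170 nM), scored ≦10 or >10 micro Molar.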

T1 sequence (Q13131 whole entry): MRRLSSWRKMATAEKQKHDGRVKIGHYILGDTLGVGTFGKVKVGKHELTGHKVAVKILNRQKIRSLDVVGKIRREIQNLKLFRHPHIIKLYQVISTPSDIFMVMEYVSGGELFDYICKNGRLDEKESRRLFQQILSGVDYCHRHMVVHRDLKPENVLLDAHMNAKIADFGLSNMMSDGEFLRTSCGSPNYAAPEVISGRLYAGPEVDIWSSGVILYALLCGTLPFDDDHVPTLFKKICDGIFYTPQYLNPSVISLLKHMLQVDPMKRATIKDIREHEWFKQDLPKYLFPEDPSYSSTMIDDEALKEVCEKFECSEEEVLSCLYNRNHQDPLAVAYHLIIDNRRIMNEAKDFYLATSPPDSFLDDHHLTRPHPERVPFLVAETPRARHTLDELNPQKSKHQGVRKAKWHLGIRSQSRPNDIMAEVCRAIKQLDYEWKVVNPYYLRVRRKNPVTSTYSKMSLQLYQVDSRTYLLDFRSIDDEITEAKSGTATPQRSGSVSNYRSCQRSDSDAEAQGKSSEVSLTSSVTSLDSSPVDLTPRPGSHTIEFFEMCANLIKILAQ
T1 sequence (Q9Y478 whole entry): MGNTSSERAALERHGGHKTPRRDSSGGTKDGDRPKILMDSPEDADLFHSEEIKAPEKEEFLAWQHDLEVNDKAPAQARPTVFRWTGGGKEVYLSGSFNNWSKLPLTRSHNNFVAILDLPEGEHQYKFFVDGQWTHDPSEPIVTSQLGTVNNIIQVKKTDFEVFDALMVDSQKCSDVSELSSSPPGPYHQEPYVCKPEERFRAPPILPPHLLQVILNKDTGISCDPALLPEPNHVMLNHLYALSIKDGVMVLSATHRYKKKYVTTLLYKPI
T1 sequence (Q9UGJ0 whole entry partner): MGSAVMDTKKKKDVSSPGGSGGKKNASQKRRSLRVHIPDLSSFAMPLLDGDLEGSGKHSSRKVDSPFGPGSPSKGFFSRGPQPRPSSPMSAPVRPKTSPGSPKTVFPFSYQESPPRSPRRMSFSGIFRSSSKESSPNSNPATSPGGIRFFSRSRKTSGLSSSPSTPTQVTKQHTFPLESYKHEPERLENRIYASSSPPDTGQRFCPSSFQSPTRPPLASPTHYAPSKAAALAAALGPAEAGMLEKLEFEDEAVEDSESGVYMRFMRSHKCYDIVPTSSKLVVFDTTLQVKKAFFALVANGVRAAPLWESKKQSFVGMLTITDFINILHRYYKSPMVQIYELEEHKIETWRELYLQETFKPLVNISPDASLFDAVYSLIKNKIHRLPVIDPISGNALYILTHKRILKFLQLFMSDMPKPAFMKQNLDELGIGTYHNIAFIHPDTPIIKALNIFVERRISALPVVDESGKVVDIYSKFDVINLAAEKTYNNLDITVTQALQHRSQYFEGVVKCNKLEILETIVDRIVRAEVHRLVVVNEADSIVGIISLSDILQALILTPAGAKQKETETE

| SMILES | reduction of blood glucose [1] | activity: Ratio between the % of control (basal activity) of compound of formula (I) at 30 μM and the % of control (basal activity) of AMP at 30 μM [2] | Activity (table III): Concentration of compound (I) for a glucose uptake equal or higher to glucose uptake induced by insulin (170 nM) (H-2 Kb cells) |
| --- | --- | --- | --- |
| NC(=O)c1ncn([C@@H]2O[C@H](CO)[C@@H](O)[C@H]2O)c1N [AICAR] | 35% | – | – |
| CCc1ccc(-c2c(Cl)sc3[nH]c(=O)c(-c4ccccc4)c(O)c23)cc1 [Compound 181] | – | 559% | ++ (^++ or **concentration of compound (I) ≦10 micro Molar) |
| CC(C)c1ccc(-c2c(Cl)sc3[nH]c(=O)c(-c4ccccc4)c(O)c23)cc1 [Compound 182] | – | 165% | + (^+ or *concentration of compound (I) >10 micro Molar) |
| CCCc1ccc(-c2c(Cl)sc3[nH]c(=O)c(-c4ccccc4)c(O)c23)cc1 [Compound 183] | – | 146% | + (^+ or *concentration of compound (I) >10 micro Molar) |
| O=c1[nH]c2sc(Cl)c(-c3ccc4c(Cl)cccc4c3O)c2c(O)c1-c1ccccc1 [Compound 184] | – | 167% | ++ (^++ or **concentration of compound (I) ≦10 micro Molar) |
| O=c1[nH]c2sc(Cl)c(-c3ccc4ccccc4c3O)c2c(O)c1-c1ccc(F)cc1 [Compound 185] | – | 284% | ++ (^++ or **concentration of compound (I) ≦10 micro Molar) |
| Cc1ccc(-c2c(O)c3c(-c4ccc5ccccc5c4O)c(Cl)sc3[nH]c2=O)cc1 [Compound 186] | – | 192% | ++ (^++ or **concentration of compound (I) ≦10 micro Molar) |
| COc1cc(F)ccc1-c1c(Cl)sc2[nH]c(=O)c(-c3ccccc3)c(O)c12 [Compound 187] | – | 124% | + (^+ or *concentration of compound (I) >10 micro Molar) |
| Cc1ccc(-c2c(O)c3c(-c4ccc(F)cc4O)csc3[nH]c2=O)cc1 [Compound 188] | – | 183% | + (^+ or *concentration of compound (I) >10 micro Molar) |
| COc1ccc(F)cc1-c1c(Cl)sc2[nH]c(=O)c(-c3ccccc3)c(O)c12 [Compound 189] | – | 175% | + (^+ or *concentration of compound (I) >10 micro Molar) |
| COc1ccc(-c2c(Cl)sc3[nH]c(=O)c(-c4ccccc4)c(O)c23)cc1OC [Compound 190] | – | 256% | + (^+ or *concentration of compound (I) >10 micro Molar) |
| COc1ccc(-c2c(O)c3c(-c4ccc(F)cc4O)csc3[nH]c2=O)cc1 [Compound 191] | – | 187% | + (^+ or *concentration of compound (I) >10 micro Molar) |
| Cc1ccc(-c2c(Cl)sc3[nH]c(=O)c(-c4cccc(C(=O)O)c4)c(O)c23)c(O)c1 [Compound 192] | – | 193% | ++ (^++ or **concentration of compound (I) ≦10 micro Molar) |
| O=c1[nH]c2sc(Cl)c(-c3cc(F)c(F)cc3O)c2c(O)c1-c1ccccc1 [Compound 193] | – | 139% | + (^+ or *concentration of compound (I) >10 micro Molar) |
| Cc1ccc(-c2c(O)c3c(-c4ccc(C)cc4O)c(Cl)sc3[nH]c2=O)cc1 [Compound 194] | – | 183% | ++ (^++ or **concentration of compound (I) ≦10 micro Molar) |
| Cc1ccc(-c2c(Cl)sc3[nH]c(=O)c(-c4cccnc4)c(O)c23)c(O)c1 [Compound 195] | – | 156% | + (^+ or *concentration of compound (I) >10 micro Molar) |
| Cc1ccc(-c2c(Cl)sc3[nH]c(=O)c(-c4ccccc4)c(O)c23)cc1C [Compound 196] | – | 165% | ++ (^++ or **concentration of compound (I) ≦10 micro Molar) |
| Cc1ccc(-c2csc3[nH]c(=O)c(-c4ccccc4)c(O)c23)c(O)c1F [Compound 198] | – | 363% | + (^+ or *concentration of compound (I) >10 micro Molar) |
| COc1c(-c2c(Cl)sc3[nH]c(=O)c(-c4ccccc4)c(O)c23)ccc(C)c1C [Compound 201] | – | 122% | + (^+ or *concentration of compound (I) >10 micro Molar) |
| Cc1ccc(-c2c(Cl)sc3[nH]c(=O)c(-c4ccccc4)c(O)c23)c(O)c1C [Compound 202] | – | 305% | ++ (^++ or **concentration of compound (I) ≦10 micro Molar) |
| Cc1ccc(-c2csc3[nH]c(=O)c(-c4ccc(F)cc4)c(O)c23)c(O)c1F [Compound 204] | – | 189% | + (^+ or *concentration of compound (I) >10 micro Molar) |
| Cc1ccc(-c2c(Cl)sc3[nH]c(=O)c(-c4ccc(F)cc4)c(O)c23)c(O)c1F [Compound 206] | – | 184% | + (^+ or *concentration of compound (I) >10 micro Molar) |
| Cc1cc(O)c(-c2c(Cl)sc3[nH]c(=O)c(-c4ccccc4)c(O)c23)cc1C [Compound 207] | – | 213% | + (^+ or *concentration of compound (I) >10 micro Molar) |
| O=c1[nH]c2sc(Cl)c(-c3ccc(F)c(F)c3O)c2c(O)c1-c1ccccc1 [Compound 208] | – | 131% | + (^+ or *concentration of compound (I) >10 micro Molar) |
| CCc1ccc(-c2c(Cl)sc3[nH]c(=O)c(-c4ccccc4)c(O)c23)c(O)c1 [Compound 209] | – | 297% | ++ (^++ or **concentration of compound (I) ≦10 micro Molar) |
| Cc1ccc(-c2c(Cl)sc3[nH]c(=O)c(-c4ccccc4)c(O)c23)c(O)c1F [Compound 210] | – | 181% | ++ (^++ or **concentration of compound (I) ≦10 micro Molar) |
| Cc1ccc(-c2c(F)sc3[nH]c(=O)c(-c4ccc(F)cc4)c(O)c23)c(O)c1F [Compound 211] | – | 149% | + (^+ or *concentration of compound (I) >10 micro Molar) |
| COc1ccc(-c2c(O)c3c(-c4ccc(F)cc4O)c(Cl)sc3[nH]c2=O)cc1 [Compound 212] | – | 183% | + (^+ or *concentration of compound (I) >10 micro Molar) |
| O=c1[nH]c2sc(Cl)c(-c3ccc(F)cc3O)c2c(O)c1-c1ccc(F)cc1 [Compound 213] | – | 349% | + (^+ or *concentration of compound (I) >10 micro Molar) |

Reference: patent publication US8563729B2, “Thienopyridone derivatives as AMP-activated protein kinase (AMPK) activators” (Merck Patent GmbH, priority 2008, dated 2013)
